For three molecules, IC50 results are on record in US20060058315A1, “2-Oxo-ethanesulfonamide derivates” (AstraZeneca AB, priority 2002, published 2006).

In the assay the target is T1, human 11βHSD1 (Homo sapiens, UniProt P28845).
T1 construct: a construct containing full-length human 11βHSD1 enzyme (in pCMVHyg); expressed in transfected cells
T1 sequence (P28845 whole entry): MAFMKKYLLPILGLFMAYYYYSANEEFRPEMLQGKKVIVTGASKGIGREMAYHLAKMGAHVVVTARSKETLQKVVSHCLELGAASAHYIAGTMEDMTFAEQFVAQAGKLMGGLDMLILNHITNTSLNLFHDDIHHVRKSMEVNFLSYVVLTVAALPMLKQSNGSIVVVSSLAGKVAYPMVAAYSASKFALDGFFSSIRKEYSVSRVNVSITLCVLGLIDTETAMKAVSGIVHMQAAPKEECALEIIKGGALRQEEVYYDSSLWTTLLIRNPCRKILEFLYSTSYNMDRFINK
In words: HeLa GRE4-βGal/11βHSD1 cell reporter assay (β-galactosidase production). In kind it is cell-based. Particulars: HeLa GRE4-βGal/11βHSD1 cells, cortisone 1 μM, overnight incubation, absorbance at 570 nm. The text has this:
HeLa cells (human cervical carcinoma derived cells) were stably transfected with a construct containing four copies of the glucocorticoid response element (GRE) linked to a beta-galactosidase reporter gene (3 kb lac Z gene derived from pSV-B-galactosidase). These cells were then further stably transfected with a construct containing full-length human 11βHSD1 enzyme (in pCMVHyg) to create GRE4-βGal/11βHSD1 cells. The principal of the assay is as follows. Cortisone is freely taken up by the cells and is converted to cortisol by 11βHSD1 oxo-reductase activity and cortisol (but not cortisone) binds to and activates the glucocorticoid receptor. Activated glucocorticoid receptor then binds to the GRE and initiates transcription and translation of β-galactosidase. Enzyme activity can then be assayed with high sensitivity by colourimetric assay.
Cells were routinely cultured in DMIM (Invitrogen, Paisley, Renfrewshire, UK) containing 10% foetal calf serum (LabTech), 1% glutamine (Invitrogen), 1% penicillin & streptomycin (Invitrogen), 0.5 mg/ml G418 (Invitrogen) & 0.5 mg/ml hygromycin (Boehringer). Assay media was phenol red free-DMEM containing 1% glutamine, 1% penicillin & streptomycin.
Compounds (1 mM) to be tested were dissolved in dimethyl sulphoxide (DMSO) and serially diluted into assay media containing […]. […]
A cocktail (25 μl) consisting of 10× Z-buffer (600 mM Na2HPO4, 400 mM NaH2PO4.2H2O, 100 mM KCl, 10 mM MgSO4.7H2O, 500 mM, β-mercaptoethanol, pH 7.0), SDS (0.2%), chlorophenol red-β-D-galactopyranoside (5 mM, Roche Diagnostics) was added per well and plates incubated at 37° C. for 3-4 hours. β-Galactosidase activity was indicated by a yellow to red colour change (absorbance at 570 nm) measured using a Tecan Spectrafluor Ultra.
The calculation of median inhibitory concentration (IC50) values for the inhibitors was performed using Origin 6.0 (Microcal Software, Northampton M A USA). Dose response curves for each inhibitor were plotted as OD units at each inhibitor concentration with relation to a maximum signal (cortisone, no compound) and IC50 values calculated. […]
In general terms: In a reporter assay the amount or activity of a reporter protein is the signal.
The molecule `CN(C)S(=O)(=O)CC(=O)c1ccccn1` [Example 2, (N,N-Dimethylsulphamoylmethyl)(pyrid-2-yl)ketone] displayed an IC50 of 72 nM.

As to `CN(C)S(=O)(=O)CC(=O)c1cnccn1` [Example 14], the half-inhibitory concentration (IC50) amounted to 47 nM.

Molecule `CC(C)Oc1ccc(C(=O)CS(=O)(=O)N(C(C)C)C(C)C)cc1` [Example 75] gave a 50% inhibitory concentration (IC50) of 60 nM.

The IC50 is the concentration that inhibits the measured activity by half. A low value points to higher potency.
